# Laboratory results from patent US20070003481A1, “Method and composition to individualize Levodopa/Carbidopa therapy using a breath test” (priority 2005, published 2007).
# Legend:
# [1] = target: T1, peripheral DDC (Homo sapiens, UniProt P20711); settings: CD doses used in current clinical practice; cited from earlier work
# T1 construct: host or cells: human subjects in vivo (cited study)
# T1 sequence (P20711 1-480): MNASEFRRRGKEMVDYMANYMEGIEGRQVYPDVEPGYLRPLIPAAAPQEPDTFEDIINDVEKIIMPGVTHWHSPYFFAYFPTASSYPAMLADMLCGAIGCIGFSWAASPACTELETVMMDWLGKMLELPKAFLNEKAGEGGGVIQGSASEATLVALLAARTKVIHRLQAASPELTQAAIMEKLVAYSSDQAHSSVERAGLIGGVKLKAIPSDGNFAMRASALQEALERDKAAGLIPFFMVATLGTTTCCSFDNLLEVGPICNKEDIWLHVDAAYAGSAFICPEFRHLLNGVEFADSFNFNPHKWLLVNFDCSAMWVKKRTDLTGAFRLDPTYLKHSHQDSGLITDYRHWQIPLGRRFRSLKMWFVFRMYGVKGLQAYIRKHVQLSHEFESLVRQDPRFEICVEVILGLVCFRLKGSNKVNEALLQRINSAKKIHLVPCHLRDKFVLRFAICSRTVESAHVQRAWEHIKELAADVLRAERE
# [2] = target: T2, dopamine decarboxylase (DDC) (Homo sapiens, UniProt P20711); test: 13CO2 breath test after 13C-labeled LD, with CD pretreatment or simultaneous CD; format: in vivo
# T2 construct: from tissue; host or cells: peripheral tissues of living human subjects (liver, kidney, gastrointestinal tract, capillary endothelium)
# T2 sequence (P20711 1-480): T1 sequence (P20711 1-480)
# Method: ^13CO2 and ^12CO2 in exhaled breath samples is measured by IR spectrometry using the UBiT-IR300 (Meretek Diagnostics, Lafayette, CO; ^13CO2 urea breath analyzer instruction manual. Lafayette, CO: Meretek Diagnostics; 2002; A1-A2)^12 The amount of ^13CO2 present in breath samples is expressed as delta over baseline (DOB) that represents a change in the ^13CO2/^12CO2 ratio of breath samples collected before and after ^13C-labeled DDC enzyme substrate ingestion, e.g., ^13C-labeled LD. [formula]
# The amount of ^13C-labeled DDC substrate absorbed and released into the breath as ^13CO2 is determined for each time point using the equation described by Amarri (Amarri et al., Clin Nutr. 14:149-54 (1995)).
# The PDR is calculated using the formula: [formula] where ^13δ=[RS/RPDB)−1]×10^3 Rs=^13C:^12C in the sample RPDB=^13C:^12C in PDB (international standard PeeDeeBelemnite)=0.0112372) P is the atom % excess n is the number of labeled carbon positions δt, δ+1, δ0 are enrichments at times t, t+1 and predose respectively C is the CO2 production rate (C=300 [mmol/h]*BSA BSA=w^0.5378*h^0.3963*0.024265 (Body Surface Area) w: Weight (kg) h: Height (cm) Cmax is the highest value of DOB from the breath curve following ^13C-labeled DDC substrate. In one embodiment of the method, the ^13C-labeled DDC substrate is ^13C-labeled LD.
# The present studies employed the ^13CO2 breath test method of the present invention to determine the optimal dose of CD required to optimally suppress peripheral metabolism of ^13C-labeled LD in individual subjects (i.e., Vlt 1 and Vlt 2). Briefly, a pre-breath test sample was collected in normal human subjects after overnight fasting (12 h) in a 1.3 L aluminum bag (Otsuka Pharmaceutical Co., Ltd., Tokyo, Japan). Briefly, normal human subjects ingested varying dosages (e.g., 25 mg-200 mg CD) 1 h prior to administration of 100 mg ^13C-labeled LD on three successive days. Breath samples were collected at specified intervals following administration of ^13C-labeled LD to determine peripheral metabolic decarboxylation of the drug. That is, breath samples were collected at 5 minutes intervals for 40 minutes, at 10 minutes intervals to 90 minutes and 120 minutes. Metabolism of ^13C-labeled LD in the absence of CD administration served as control. The results of these studies are summarized FIGS. 5-8. There is a dose response to the inhibition of peripheral DDC enzyme activity by the inhibitor CD.
# The present studies examined the effect of CD preadministration on peripheral LD metabolism in human subjects. Briefly, normal human subjects ingested varying dosages (e.g., 25 mg-200 mg CD) either simultaneously, or up to 2 h prior to administration of ^13C-labeled LD. Breath samples were collected at specified intervals following administration of ^13C-labeled LD to determine peripheral metabolic decarboxylation of the ^13C-labeled LD. Metabolism of ^13C-labeled LD in the absence of CD administration served as control. The results of these studies are summarized below in Table 1 as well as FIGS. 9-14.
# In Table 1, figures in parenthesis are percent inhibition of DDC by CD. The delta over baseline of ^13CO2 is designated as DOB. The percentage of LD dose recovered as ^13CO2 is designated as PDR. The peak breath concentration of ^13CO2 is designated as Cmax.
# Breath samples are collected at 5 min time points up to 40 min and at 10 min intervals to 90 min and at 120 min after ingestion of ^13C-labeled LD. The breath samples are collected by having the subject momentarily holding their breath for 3 seconds prior to exhaling into a sample collection bag. The breath samples are analyzed on a UBiT IR-300 spectrophotometer (Meretek, Denver, Colo.) to determine the ^13CO2/^12CO2 ratio in expired breath, or sent to a reference lab. Optionally, varying doses (10-400 mg) of CD are orally administered to the subject (10 min-6 h) prior to administration of the ^13C-labeleld LD.
# [3] = 50 mg oral CD; serum CD time course; good/rapid (N=4) and poor/slow (N=5) absorbers; cited from earlier work
# [4] = subject Vlt 1, CD 25 mg 1 h prior to LD
# [5] = subject Vlt 1, CD 25 mg simultaneous with LD
# [6] = subject Vlt 1, CD 50 mg 1 h prior to LD
# [7] = subject Vlt 1, CD 50 mg simultaneous with LD
# [8] = subject Vlt 1, CD 100 mg 1 h prior to LD
# [9] = subject Vlt 1, CD 100 mg simultaneous with LD
# [10] = subject Vlt 2, CD 50 mg 1 h prior to LD
# [11] = subject Vlt 2, CD 50 mg simultaneous with LD
# [12] = subject Vlt 2, CD 100 mg 1 h prior to LD
# [13] = subject Vlt 2, CD 100 mg simultaneous with LD
# [14] = subject Vlt 2, CD 200 mg 1 h prior to LD
# [15] = subject Vlt 2, CD 200 mg simultaneous with LD
smiles,measurement,setting,value
"C[C@@](Cc1ccc(O)c(O)c1)(NN)C(=O)O [CD, (−)-L-a-hydrazino-a-methyl-b-(3,4-dihydroxybenzene) propanoic acid monohydrate]",saturation of peripheral DDC activity,[1],not saturated
same,"suppression of peripheral decarboxylation, simultaneous ingestion of CD/LD","[2]; 25 mg or 50 mg dose of CD and 100 mg of LD, simultaneous",did not completely suppress
same,"suppression of DDC, CD administered 1 h prior to LD dose",[2]; Vlt 1 and Vlt 2,maximal suppression
same,"inhibition of peripheral DDC enzyme activity, dependence on CD dose","[2]; Vlt 1 and Vlt 2, 25 mg-200 mg CD 1 h prior to 100 mg 13C-labeled LD",dose response
same,"level of peripheral metabolism of 13C-labeled LD, CD 1 h prior versus 2 h prior to LD",[2]; human subject,no significant difference
same,"inhibition of peripheral metabolism of 13C-labeled LD, CD prior (1 h or 2 h) compared to simultaneous",[2]; normal human subjects,greater
same,peripheral metabolism of 13C-labeled LD versus control level,"[2]; normal human subjects, all concentrations of CD tested",significantly inhibited
same,DOB20: DOB value at 20 minutes after administration of 13C-labeled LD,[2]; [4],25.8
same,PDR40: PDR value at 40 minutes after administration of 13C-labeled LD,[2]; [4],12.7%
same,percent inhibition of DDC by CD (Cmax),[2]; [4],54%
same,percent inhibition of DDC by CD (DOB20),[2]; [4],43%
same,percent inhibition of DDC by CD (PDR40),[2]; [4],57%
same,DOB20: DOB value at 20 minutes after administration of 13C-labeled LD,[2]; [5],35.6
same,PDR40: PDR value at 40 minutes after administration of 13C-labeled LD,[2]; [5],18.7%
same,percent inhibition of DDC by CD (Cmax),[2]; [5],20%
same,percent inhibition of DDC by CD (DOB20),[2]; [5],22%
same,percent inhibition of DDC by CD (PDR40),[2]; [5],37%
same,DOB20: DOB value at 20 minutes after administration of 13C-labeled LD,[2]; [6],6.8
same,PDR40: PDR value at 40 minutes after administration of 13C-labeled LD,[2]; [6],3.6%
same,percent inhibition of DDC by CD (Cmax),[2]; [6],88%
same,percent inhibition of DDC by CD (DOB20),[2]; [6],85%
same,percent inhibition of DDC by CD (PDR40),[2]; [6],88%
same,DOB20: DOB value at 20 minutes after administration of 13C-labeled LD,[2]; [7],25.5
same,PDR40: PDR value at 40 minutes after administration of 13C-labeled LD,[2]; [7],11.7%
same,percent inhibition of DDC by CD (Cmax),[2]; [7],57%
same,percent inhibition of DDC by CD (PDR40),[2]; [7],61%
same,DOB20: DOB value at 20 minutes after administration of 13C-labeled LD,[2]; [8],10.6
same,PDR40: PDR value at 40 minutes after administration of 13C-labeled LD,[2]; [8],5.3%
same,percent inhibition of DDC by CD (Cmax),[2]; [8],82%
same,percent inhibition of DDC by CD (DOB20),[2]; [8],77%
same,percent inhibition of DDC by CD (PDR40),[2]; [8],82%
same,DOB20: DOB value at 20 minutes after administration of 13C-labeled LD,[2]; [9],16.5
same,PDR40: PDR value at 40 minutes after administration of 13C-labeled LD,[2]; [9],9.1%
same,percent inhibition of DDC by CD (Cmax),[2]; [9],70%
same,percent inhibition of DDC by CD (DOB20),[2]; [9],64%
same,percent inhibition of DDC by CD (PDR40),[2]; [9],69%
same,DOB20: DOB value at 20 minutes after administration of 13C-labeled LD,[2]; [10],12.6
same,PDR40: PDR value at 40 minutes after administration of 13C-labeled LD,[2]; [10],8.3%
same,percent inhibition of DDC by CD (Cmax),[2]; [10],48%
same,percent inhibition of DDC by CD (DOB20),[2]; [10],66%
same,percent inhibition of DDC by CD (PDR40),[2]; [10],56%
same,DOB20: DOB value at 20 minutes after administration of 13C-labeled LD,[2]; [11],15.4
same,PDR40: PDR value at 40 minutes after administration of 13C-labeled LD,[2]; [11],11.0%
same,percent inhibition of DDC by CD (Cmax),[2]; [11],32%
same,percent inhibition of DDC by CD (DOB20),[2]; [11],58%
same,percent inhibition of DDC by CD (PDR40),[2]; [11],41%
same,DOB20: DOB value at 20 minutes after administration of 13C-labeled LD,[2]; [12],13.5
same,PDR40: PDR value at 40 minutes after administration of 13C-labeled LD,[2]; [12],7.8%
same,percent inhibition of DDC by CD (Cmax),[2]; [12],63%
same,percent inhibition of DDC by CD (DOB20),[2]; [12],63%
same,percent inhibition of DDC by CD (PDR40),[2]; [12],59%
same,DOB20: DOB value at 20 minutes after administration of 13C-labeled LD,[2]; [13],26.7
same,PDR40: PDR value at 40 minutes after administration of 13C-labeled LD,[2]; [13],14.1%
same,percent inhibition of DDC by CD (Cmax),[2]; [13],27%
same,percent inhibition of DDC by CD (DOB20),[2]; [13],27%
same,percent inhibition of DDC by CD (PDR40),[2]; [13],25%
same,DOB20: DOB value at 20 minutes after administration of 13C-labeled LD,[2]; [14],8.8
same,PDR40: PDR value at 40 minutes after administration of 13C-labeled LD,[2]; [14],5.7%
same,percent inhibition of DDC by CD (Cmax),[2]; [14],75%
same,percent inhibition of DDC by CD (DOB20),[2]; [14],76%
same,percent inhibition of DDC by CD (PDR40),[2]; [14],70%
same,DOB20: DOB value at 20 minutes after administration of 13C-labeled LD,[2]; [15],20.5
same,PDR40: PDR value at 40 minutes after administration of 13C-labeled LD,[2]; [15],12.0%
same,percent inhibition of DDC by CD (Cmax),[2]; [15],44%
same,percent inhibition of DDC by CD (PDR40),[2]; [15],36%
same,absorption of CD among human subjects,[3],variable
